Where two headings read alike, the source gives them in different places. Marks after values point to notes of the source that are not given here.
Experiments:
[1] = Hygroscopic properties of drugs and excipients (saturation limits, i coefficients, hygroscopic parameter); type: physicochemical; conditions: for Saturated mass fraction (mfsat): mass fraction that can be dissolved in liquid water at 25° C.; for Saturated mole fraction (χsat): mole fraction that can be dissolved in liquid water at 25° C.; for Predicted van't Hoff factor (i): measured in this study, best fit of Eq. (15) to water activity data
Procedure: It is noted that Eq. (15) has a form similar to Raoult's law and is valid for materials that may (i>1) or may not (i=1) dissociate upon dissolution. Specifically, Raoult's law provides a linear expression to describe activity coefficients at low solute concentrations, as presented by Finlay (2001). […] Furthermore, values of the i coefficients in this study are determined based on best fits to experimental data over a range of concentrations. Therefore, the application of Eq. (15) can be viewed as a physically based expression for fitting the experimental data. Finally, high accuracy is required at dilute concentrations, which have the largest impact on the final size achieved by the hygroscopic aerosol.
Experimental measurements were made in this study to determine the water activity coefficients of AS, CA, and PG. Activity coefficients for NaCl and MN were determined from the studies of Cinkotai (1971) and Ninni (2000), respectively. […] In order to represent the hygroscopic effect of molecular dissociation with a single coefficient, curve fits to the experimental data were based on Eq. (15) for a single component solution. The optimal value of i providing the best fit to the experimental data was calculated using a minimization routine. […] This limit was used to ensure accuracy of the i-values for dilute droplets, which is needed to ensure accurate estimates of final droplet size.
[formula] where m and M represent the mass (kg) and molar mass (kg/kmol) of the solute (s) and water (w). […] Based on Eq. (15), is directly impacts the activity coefficient and ρs influences the mass term in the mole fraction calculation (Eq. 17). […] This effect of initial drug or excipient loading can be taken into account as a function of the initial solute volume fraction (vfs). The resulting growth coefficient (GC1) for a single component droplet is then

[2] = cited from earlier work; for Predicted van't Hoff factor (i): Eq. (15) fit based on Ninni et al. (2000) measurements (MN) or Cinkotai (1971) correlations (NaCl)
[3] = Hygroscopic growth tube, CAG nanoparticle aerosols sized by cascade impactor; type: physicochemical; conditions: Table 2
Procedure: Budesonide nanoparticle aerosols were generated using the Capillary Aerosol Generator (CAG). This technology represents a generic means of producing engineered pharmaceutical nanosized particles suitable for inhalation. The CAG utilizes controlled heating of a liquid formulation passing through a capillary tube to produce nanosized dry particles exiting the capillary nozzle.
Hygroscopic growth of these nanoparticle aerosols was evaluated by passing the aerosol through a growth tube. Briefly, following nanoparticle generation the aerosols were drawn through the 29 cm hygroscopic growth tube at a flow rate of 30 L/min. The tube was held at 37° C. and 99% relative humidity (RH) to simulate expected lung conditions. The growth tube was approximately 29 cm, which is consistent with the distance from the mouth inlet to the main bronchi of an adult. Following passage through the tubular geometry the aerosols were delivered to the 10-stage MOUDI or Andersen Cascade Impactor (ACI; Graseby-Andersen Inc, Smyrna, Ga.) for particle sizing. Both the tubular geometry and the cascade impactor were placed in an environmental chamber (Espec Environmental Cabinet, Hudsonville, Mich.) to maintain constant temperature and humidity conditions. The ACI was employed following hygroscopic growth when it was expected that the aerosols produced would be in the 1-3 μm size range. For these studies, the final aerodynamic particle size distribution of the aerosol exiting the hygroscopic growth tube was determined at 28±2 L/min, and humidified co-flow air (99% RH) was supplied to the impactor. […] The mass of drug on each impaction plate was determined and used to calculate both the initial and final aerodynamic particle size distributions of the drug aerosols. The growth ratios were calculated by comparing the final size with the initial size of the nanoparticle as a measure of hygroscopic size increase.
Hygroscopic growth of these nanoparticle aerosols was evaluated by passing the aerosol through a growth tube as described in Example 1. […]

[4] = In vitro growth system for validation of the numerical model (CAG, growth zone, MOUDI); type: physicochemical
Procedure: Submicrometer drug and drug-hygroscopic excipient particles were formed using a capillary aerosol generator (CAG). The capillary aerosol generation system is described and considered in detail by the previous studies of Hindle et al. (1998) and Longest et al. (2007). In the current study, the formulation was a mixture of 50% water and 50% ethanol by weight to dissolve both hydrophilic and hydrophobic drugs. This solution was heated and pumped through the CAG at a flow rate of 10 mg/s to form the spray aerosol. Single drug and drug-hygroscopic excipient particles were created experimentally for albuterol sulfate (AS), budesonide (BD), and sodium chloride (NaCl). Specifically, single component drug particles were formed using a 0.2% w/v AS solution and a 0.15% w/v BD solution, respectively. Combination drug-hygroscopic excipient particles were generated using a 0.1% AS-0.1% NaCl w/v solution and a 0.1% BD-0.1% NaCl w/v solution, respectively. The spray aerosol was allowed to dry into solid particles by passage through a 52 cm length of dry tubing (FIG. 3). Initial particle size was then assessed by connecting the tubing to a 10 stage MOUDI (MSP Corp, Shoreview, Minn.). To produce growth, the aerosol stream was combined with humidified air at T=25° C. and RH=99% sampled from an environmental cabinet. […] This length was selected to provide a residence time of approximately 0.2 s, which is consistent with the time required for an orally inhaled pharmaceutical aerosol to reach the main bifurcation of the lungs under standard inhalation conditions. Walls of the growth section were pre-wetted to simulate the wet walled conditions of the respiratory tract, which stimulates aerosol growth. The growth tube was not heated and was exposed to 24° C. room temperature air for this initial validation experiment. After exiting the growth tube, the aerosol was passed into the 10 stage MOUDI for size characterization.
In separate experiments, the temperature and humidity of the humidified air and the temperature of the aerosol mixture stream at the inlet to the condensational growth tube were measured. […]
The initial aerodynamic particle size distribution of the aerosol exiting the drying section of tubing was determined using the 10 stage MOUDI operated at 30±2 L/min, which allowed size fractionation between 50 nm and 10 μm. […] The final aerodynamic particle size distribution of the aerosol exiting the condensational growth tube was also determined using the MOUDI operated at 30±2 L/min. […] The mass of drug and excipient on each impaction plate was determined and used to calculate both the initial and final aerodynamic particle size distributions of the drug and combination aerosols. […]

[5] = Generation of submicrometer aerosol with small particle aerosol generator (SPAG) and drying gas; type: physicochemical; conditions: SPAG nebulized and dried; 560 nm: 0.1% solution, 7.5 and 3 L/min; 900 nm: 0.5% solution, 7 and 3 L/min
Procedure: With LFT, a heated air source is not present for aerosol size reduction, as with HFT. However, medical gases used with LFT (oxygen and helium-oxygen) are typically dry. A study was conducted to evaluate if dry medical-grade gas could be used to produce a submicrometer aerosol from a commercially available nebulizer. A small particle aerosol generator (SPAG) was employed, which functions as a jet nebulizer with an additional relatively large and inefficient drying chamber. […] Specifically, albuterol sulfate solutions were nebulized and dried using a series of nebulizer airflow conditions to produce aerosols with initial mean MMADs (and standard deviations) of 150 (5.5) nm, 560 (11.4) nm, and 900 (32.7) nm (FIG. 11). The 560 nm aerosol was generated using a 0.1% albuterol sulfate in water solution with a nebulizer gas flow rate of 7.5 L/min and a drying gas flow rate of 3 L/min. […]
Nano-sized aqueous-based drug aerosols were generated using a small particle aerosol generator (SPAG-6000, ICN Pharmaceuticals, Costa Mesa, Calif.), and were delivered through a nasal model geometry airway in the presence and absence of ECG conditions. Albuterol sulfate solutions were nebulized using a series of nebulizer airflow conditions to produce aerosols with initial mean (SD) measured size of 900 (32.7) nm. […]

OC[C@@H](O)[C@@H](O)[C@H](O)[C@H](O)CO [Mannitol (MN), Mannitol]
Hygroscopic parameter isρs/Ms [1]: 8.2 kmol/m^3
Saturated mass fraction (mfsat) [1]: 0.15
Saturated mole fraction (χsat) [1]: 0.018
Predicted van't Hoff factor (i) [2]: 1.0^e

O=C(O)CC(O)(CC(=O)O)C(=O)O [Citric acid (CA), Citric acid]
Hygroscopic parameter isρs/Ms [1]: 16.5 kmol/m^3
Saturated mass fraction (mfsat) [1]: 0.57
Predicted van't Hoff factor (i) [1]: 1.9^d
Saturated mole fraction (χsat) [1]: 0.11

Albuterol sulfate [Albuterol sulfate (100%)]
Initial MMAD ([3]; CAG-generated albuterol nanoparticles before growth tube, n = 3-4): 380 nm
Final MMAD (99% RH) ([3]; after 29 cm growth tube, 37° C., 99% RH): 510 nm
Growth ratio ([3]; final size compared with initial size, 29 cm growth tube, 99% RH): 1.35
Hygroscopic parameter isρs/Ms [1]: 4.9 kmol/m^3
Saturated mass fraction (mfsat) [1]: 0.28
Predicted van't Hoff factor (i) [1]: 2.1
Saturated mole fraction (χsat) [1]: 0.012
Initial MMAD ([4]; at inlet to growth zone, SD in parentheses, minimum 4 trials): 0.38 (0.01)^a μm
Initial dgeo ([4]; calculated from MMAD and dry particle density): 0.33 μm
Final dgeo ([4]; outlet of 26 cm growth tube, about 0.2 s, 99% RH, assumed equal to the MMAD): 0.51 (0.04) μm
d/do ([4]; ratio of final to initial geometric diameters): 1.55 (0.12)
initial mean MMAD (standard deviation) [5]: 900 (32.7) nm

CC(O)CO (centres unmarked) [Propylene glycol (PG), Propylene glycol]
Hygroscopic parameter isρs/Ms [1]: 13.6 kmol/m^3
Saturated mass fraction (mfsat) [1]: 1.00
Predicted van't Hoff factor (i) [1]: 1.0^d
Saturated mole fraction (χsat) [1]: 1.00

[Cl-].[Na+] [Sodium chloride (NaCl), Sodium chloride]
Hygroscopic parameter isρs/Ms [1]: 77.9 kmol/m^3
Saturated mass fraction (mfsat) [1]: 0.265
Predicted van't Hoff factor (i) [2]: 2.1^f
Predicted van't Hoff factor (i) ([2]; listed as NaCl): 2.1
i coefficient, Raoult's law form of the equation ([2]; NaCl data of Cinkotai (1971), through mfs = 0.3): 1.9
